Results taken from PubChem BioAssay AID2060508 (Molecular Pharmacology Branch, DTP, NCI, 2025).
Values joined by “and” are separate entries in the source; they are usually repeats but may differ in a detail not shown here. Identical values can stand only once.

Test system: 454973-116-R2-J3-PDC spheroids, viability, % test/control
Experiment: Anticancer human tumor 454973-116-R2-J3-PDC patient-derived pancreatic carcinoma cell line growth inhibition [GQUAD]
Details: spheroids with HUVEC and MSC; for viability, T/C: stronger effect = lower value
Source text: DNA G-quadruplex Stabilizer Agents in Combinations in Complex Spheroids
A high-throughput screen of multi-cell type tumor spheroids was designed to identify active combinations of DNA G-quadruplex stabilizer agents and targeted small molecules. Complex spheroids include a stromal component modeled by human endothelial cells (HUVEC) and fibroblasts modeled by human mesenchymal stem cells (MSCs). The concentration ranges selected for each drug and investigational agent were based upon clinically achievable concentrations if the clinical Cmax of the agent was known.
Compounds. The drugs and investigational agents: pidnarulex (CX-5461; NSC782164), APTO-253 (NSC789042), BRACO-19 (NSC847499), peposertib (NSC802822), ceralasertib (NSC780249), elimusertib (NSC800525), camonsertib (NSC841442), AZD-1390 (NSC803789), olaparib (NSC753686), talazoparib (NSC767125), ART-558 (NSC835418), sotorasib (NSC818433), MRTX-1133 (NSC836407), SN-38 (NSC673596), topotecan (NSC609699), etoposide (NSC141540), doxorubicin (NSC123127), gemcitabine (NSC613327), 5-fluorouracil (NSC19893), paclitaxel (NSC125973), vemurafenib (NSC761431), panobinostat (NSC761190), R-306465 (JNJ-16241199; NSC773264), adavosertib (NSC754352), TP-3654 (NSC805149), carboplatin (NSC241240), KSQ-4279 (NSC840948), and staurosporine (NSC755774) were obtained from the National Cancer Institute (NCI) Developmental Therapeutics Program Chemical Repository (34). The FDA-approved anticancer drug set is available from the NCI Developmental Therapeutics Program. […] The stock solutions were prepared in dimethyl sulfoxide (DMSO, Sigma-Aldrich, St. Louis, MO, cat. D2650) at 800-fold the tested concentration and stored at -70 degrees C prior to their use. All drugs and investigational agents were tested over a range starting from a high concentration at or near the clinical Cmax and decreasing in half-log increments. If the clinical Cmax for an agent had not been determined, the highest concentration tested was 10 microM.
2.3 Cell Culture. All cells were maintained in an incubator at 37 degrees C and 5% CO2 with 95% humidity. The PDC lines were cultured according to standard operating procedures established by the NCI PDMR. All PDCs were thawed and cultured in Matrigel-coated flasks prepared with a working solution of 1X Ham's F-12 nutrient mix, without supplementation (Invitrogen, cat. 11765054), 100 U/mL penicillin-streptomycin (Invitrogen, cat. 15140122), and 2.5% Matrigel (Corning Inc., cat. 354248) for the first three passages. The 857933-349-R-J2-PDC line was cultured in 6C/Colon 1B media, which includes advanced DMEM/F-12 (Thermo Fisher Scientific, cat. 12634028), 10 mM HEPES (Thermo Fisher Scientific, cat. 15630080), 1X GlutaMAX supplement (Thermo Fisher Scientific, cat. 35050061), 0.1 mg/mL primocin (InvivoGen, cat. ant-pm-2), 10% defined fetal bovine serum, heat inactivated (HyClone Laboratories Inc., cat. SH30070.03HI), 50% L-WRN conditioned media (ATCC, cat. CRL-3276), 1.25 mM N-Acetyl-L-cysteine (Sigma-Aldrich, cat. A9165), 10 mM nicotinamide (Sigma-Aldrich, cat. N0636), 1X B-27 supplement (Thermo Fisher Scientific, cat. 17504044), 1X N-2 supplement (Thermo Fisher Scientific, cat. 17502048), 10 microM Y-27632 dihydrochloride (Tocris Bioscience, cat. 1254), and 50 ng/mL human EGF recombinant protein (Thermo Fisher Scientific, cat. PHG0311). The 485176-168-R4-J1-PDC line was cultured in Panc media, which includes all 6C/Colon 1B media components plus 100 ng/mL human FGF-10 (Thermo Fisher Scientific, cat. 100-26), 500 nM SB-431542 (Selleckchem, cat. S1067), and gastrin (Tocris, cat. 3006).
[…]
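Also: spheroids exposed to compounds for seven days.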

O=c1[nH]cc(F)c(=O)[nH]1 + Cc1cnc(CNC(=O)c2c(=O)c3ccc(N4CCCN(C)CC4)nc3n3c2sc2ccccc23)cn1
IC50 (curve of first compound, second compound 0.0316 µM): 1640 nM
IC50 (curve of first compound, second compound 0.1 µM): 2200 nM
IC50 (curve of first compound, second compound 0.316 µM): > 10000 nM
IC50 (curve of first compound, second compound 1 µM): > 10000 nM
IC50 (curve of first compound, second compound 3.16 µM): > 10000 nM
IC50 (curve of first compound, second compound 10 µM): < 31.6 nM
viability, T/C (second compound 0.0316 µM, first compound 0.0316 µM): 103%
viability, T/C (second compound 0.0316 µM, first compound 0.1 µM): 92.6%
viability, T/C (second compound 0.0316 µM, first compound 0.316 µM): 98.9%
viability, T/C (second compound 0.0316 µM, first compound 1 µM): 59.6%
viability, T/C (second compound 0.0316 µM, first compound 3.16 µM): 33.9%
viability, T/C (second compound 0.0316 µM, first compound 10 µM): 40.7%
viability, T/C (second compound 0.1 µM, first compound 0.0316 µM): 89.7%
viability, T/C (second compound 0.1 µM, first compound 0.1 µM): 90.1%
viability, T/C (second compound 0.1 µM, first compound 0.316 µM): 78.6%
viability, T/C (second compound 0.1 µM, first compound 1 µM): 66.3%
viability, T/C (second compound 0.1 µM, first compound 3.16 µM): 37.9%
viability, T/C (second compound 0.1 µM, first compound 10 µM): 44.8%
viability, T/C (second compound 0.316 µM, first compound 0.0316 µM): 73.8%
viability, T/C (second compound 0.316 µM, first compound 0.1 µM): 84.2%
viability, T/C (second compound 0.316 µM, first compound 0.316 µM): 78.1%
viability, T/C (second compound 0.316 µM, first compound 1 µM): 60.2%
viability, T/C (second compound 0.316 µM, first compound 3.16 µM): 46.5%
viability, T/C (second compound 0.316 µM, first compound 10 µM): 53.8%
viability, T/C (second compound 1 µM, first compound 0.0316 µM): 66.8%
viability, T/C (second compound 1 µM, first compound 0.1 µM): 67.2%
viability, T/C (second compound 1 µM, first compound 0.316 µM): 79.4%
viability, T/C (second compound 1 µM, first compound 1 µM): 60.7%
viability, T/C (second compound 1 µM, first compound 3.16 µM): 50.1%
viability, T/C (second compound 1 µM, first compound 10 µM): 52.3%
viability, T/C (second compound 3.16 µM, first compound 0.0316 µM): 62.1%
viability, T/C (second compound 3.16 µM, first compound 0.1 µM): 64.4%
viability, T/C (second compound 3.16 µM, first compound 0.316 µM): 64.2%
viability, T/C (second compound 3.16 µM, first compound 1 µM): 57.3%
viability, T/C (second compound 3.16 µM, first compound 3.16 µM): 59.3%
viability, T/C (second compound 3.16 µM, first compound 10 µM): 53.9%
viability, T/C (second compound 10 µM, first compound 0.0316 µM): 0.72%
viability, T/C (second compound 10 µM, first compound 0.1 µM): 17.2%
viability, T/C (second compound 10 µM, first compound 0.316 µM): 52.7%
viability, T/C (second compound 10 µM, first compound 1 µM): 48%
viability, T/C (second compound 10 µM, first compound 3.16 µM): 18.3%
viability, T/C (second compound 10 µM, first compound 10 µM): 0.22%

O=c1[nH]cc(F)c(=O)[nH]1
viability, T/C (compound 0.0316 µM): 111% and 108% and 105%
viability, T/C (compound 0.1 µM): 93.5% and 97.6% and 87.4%
viability, T/C (compound 0.316 µM): 105% and 95.1% and 107%
viability, T/C (compound 1 µM): 76% and 70.2% and 86.5%
viability, T/C (compound 3.16 µM): 32.9% and 34.6% and 35.7%
viability, T/C (compound 10 µM): 46.3% and 42.6% and 32.9%
IC50 (curve of compound): 2270 nM and 2110 nM and 2280 nM

C=CCn1c(=O)c2cnc(Nc3ccc(N4CCN(C)CC4)cc3)nc2n1-c1cccc(C(C)(C)O)n1
viability, T/C (compound 0.0316 µM): 108% (2×) and 104%
viability, T/C (compound 0.1 µM): 104% and 86.2% and 90.6%
viability, T/C (compound 0.316 µM): 54.8% and 68.5% and 59.1%
viability, T/C (compound 1 µM): 17.5% and 15.8% and 14.5%
viability, T/C (compound 3.16 µM): 7.41% and 7.71% and 9.27%
viability, T/C (compound 10 µM): 9.65% and 8.23% and 9.05%
IC50 (curve of compound): 373 nM and 456 nM and 387 nM

COc1cccc2c1C(=O)c1c(O)c3c(c(O)c1C2=O)CC(O)(C(=O)CO)CC3OC1CC(N)C(O)C(C)O1 (stereo not drawn)
viability, T/C (compound 0.0316 µM): 96.8% and 101% and 90.3%
viability, T/C (compound 0.1 µM): 63.4% and 69.4% and 65.3%
viability, T/C (compound 0.316 µM): 24.1% and 34.5% and 26.2%
viability, T/C (compound 1 µM): 25.2% and 30.2% and 26.5%
viability, T/C (compound 3.16 µM): 11.2% and 23.5% and 13%
viability, T/C (compound 10 µM): 0.95% and 0.93% and 0.63%
IC50 (curve of compound): 151 nM and 225 nM and 162 nM
